SMILES strings stand for the structures.

The test system of test [1] is NS1 murine myeloma cell line. Description: CyTOX (Cy) chromogenic cytotoxicity bioassay. Format: cell-based. The text has this:
CyTOX (alternatively referred to herein as Cy) is a microtitre plate bioassay use to identify potential antitumour actives. CyTOX is a chromogenic bioassay with broad application to a wide range of tumour and non-tumour cell lines.
CyTOX features a liquid media into which the test compound has been incorporated together with a novel chromogen. As the cells grow and divide the chromogen is metabolised from purple in a single step process to a colourless metabolite. CyTOX was undertaken using NS1 murine myeloma cell line as a guide to mammalian cell toxicity.
Briefly, in CyTOX the cells were applied to the media containing the test chemical and allowed to grow for 72 hours. The assay was monitored at 24, 48 and 72 hours and the active wells identified.

Test [2] has as its system K562 leukemia, MCF-7 breast cancer, Colo-205 colon cancer and D04 and SKMel-5 melanoma. Description: In vitro growth inhibition profile, sensitive versus other cell lines. It counts as cell-based, human. The protocol: (§1) In addition, scattering of MCF-7 and HT-29 colon tumour cells was observed, typical of PKC activators. […] Additionally, given their similarity in structure, EBI-47, EBI-59 and EBI-61 are also considered to be protein kinase C activators.
For growth inhibition assays, cells (2000-5000/well) were seeded in 96-well plates in duplicate, treated with drug next day and allowed to grow for a further 5-6 days. The plates were then washed in PBS (phosphate buffered saline, pH 7.2), fixed with ethanol and stained by addition of 50 μL 0.4% SRB (sulforhodamine) in 1% acetic acid. The plate was left at room temperature for a minimum of 15 minutes, then washed rapidly with tap water and then twice with 1% acetic acid. After addition of 100 μL/well of 10 mM Tris base (unbuffered, pH>9), plates were left for a minimum of 5 minutes, then the absorbance was read at 564 nm on the ELISA reader, with a 3 second prior shaking. After subtraction of a blank (wells with no cells, typically about 0.04), growth inhibition was calculated as % of the untreated control and plotted against dose. […]

Test [3] has as its system normal human fibroblasts (NFF). Nature of the test: Growth inhibition of cultured cells. It counts as cell-based. The procedure:
Briefly, a range of tumour cells including mouse melanoma, human melanoma, mouse squamous cell carcinoma, human breast, human colon, human leukemia and human lung and normal human cells including normal human fibroblasts were seeded at 2-5,000 per microtitre well (96-well plate) in 10% FCS-RPMI 1640 culture medium, treated, and allowed to grow until the controls were nearly confluent (5-6 days). The wells were then washed twice with PBS, fix with ethanol for a minimum of 5 minutes and washed with water. SRB solution (50 μL of 0.4% in 1% acetic acid) was added and left at room temperature for a minimum of 15 minutes. The plate was washed rapidly with tap water and then twice with 1% acetic acid. After addition of 100 μL/well of 10 mM Tris base (unbuffered, pH>9), plates were left for a minimum of 5 minutes, then the absorbance was read at 564 nm on the ELISA reader, with a 3 second prior shaking. After subtraction of a blank (wells with no cells, absorbance typically about 0.04), growth inhibition was calculated as % of the untreated control and plotted against dose.
Briefly, a suspension of a range of tumour cells including mouse melanoma, human melanoma, mouse squamous cell carcinoma, human breast, human colon, human leukemia and human lung and normal human cells including normal human fibroblasts were seeded into round-bottom microtitre plates in 10% FCS-RPMI 1640 culture medium, treated and allowed to grow for 5-6 days. To measure cell growth, 20 μL of a combined MTS/PMS solution (Promega Cell ProliferationAssay Kit Cat #G5430) was added to each well of the 96 well assay plate. After 1-4 hours the plates were placed in the ELISA plate reader and the absorbance read at 490 nm. After subtraction of a blank (wells with no cells, absorbance typically about 0.4), growth inhibition was calculated as % of the untreated control and plotted against dose.
For growth inhibition assays, cells (2000-5000/well) were seeded in 96-well plates in duplicate, treated with drug next day and allowed to grow for a further 5-6 days. The plates were then washed in PBS (phosphate buffered saline, pH 7.2), fixed with ethanol and stained by addition of 50 μL 0.4% SRB (sulforhodamine) in 1% acetic acid. The plate was left at room temperature for a minimum of 15 minutes, then washed rapidly with tap water and then twice with 1% acetic acid. After addition of 100 μL/well of 10 mM Tris base (unbuffered, pH>9), plates were left for a minimum of 5 minutes, then the absorbance was read at 564 nm on the ELISA reader, with a 3 second prior shaking. After subtraction of a blank (wells with no cells, typically about 0.04), growth inhibition was calculated as % of the untreated control and plotted against dose.

The subject of test [4] is Bacillus subtilis. Nature of the test: ProTOX (Bs) antibacterial bioassay. Format: cell-based. The text has this:
ProTOX, (alternatively referred to herein as Bs) is an antibacterial bioassay, broadly applicable to most aerobic and anaerobic bacteria. The bioassay features a solid phase agar base into which the test compound has been incorporated together with a chromogen. As the bacteria multiply in the well, the chromogen is metabolised from blue in a two-step process to a colourless compound. Compounds with potent bactericidal activity inhibit bacterial metabolism of the chromogen while bacteriostatic compounds induce limited metabolism as indicated by an intermediate pink colour. ProTOX is broadly applicable to a range of gram-positive and gram-negative bacteria under aerobic and microaerophilic conditions. ProTOX assays were carried out using Bacillus subtilis.
Briefly, in ProTOX, the bacteria (24 hour broth) were applied to the surface of an agar matrix containing the test sample and allowed to grow for 48 hours. The assay was monitored at 24 and 48 hours and the active wells noted. Known antibiotics yield consistent colour transitions which are concentration and time dependent. These patterns provide an important guide to the early recognition of interesting characteristics.

Test [5] relates to HT-29 colon tumour cells. Description: Cell scattering of cultured cells. Format: cell-based, human.
Excerpt: as §1

Where [6] appears, read: Table 6a, last well with activity, real value may be lower.

In the case of `C/C=C(\C)C(=O)OC1C(C)C2(O)C(C3OC3(CO)C(O)C3(O)C(=O)C(C)=CC32)C2C(C)(C)C12OC(=O)C(C)CC` (stereo not shown) [EBI-46, 12-tigloyl-13-(2-methylbutanoyl)-6,7-epoxy-4,5,9,12,13,20-hexahydroxy-1-tiglian-3-one], the “Cy Titre” value in test [1] is given as 8. Also, the “Cy LD99” value in test [1] (setting [6]) is 7.8 pg/mL. Further, the “growth-inhibiting doses in sensitive cell lines lower than for other human tumour cell lines and normal human fibroblasts” value in test [2] is on record as “approximately 100 fold”. Further, the “Concentration of EBI-46 at which growth inhibition was observed” value in test [3] is recorded as “None observed at 10 μg/mL”. In test [4], the “Bs Titre” value is on record as 1. In addition, in test [4] (setting [6]), the “Bs LD99” value turned out to be 50 pg/mL. The “scattering of HT-29 colon tumour cells” value in test [5] is “scattering”.

The values are drawn from US10980769B2, “Tiglien-3-one derivatives” (QBIOTICS PTY LTD, priority 2005, dated 2021).
